Reference: patent US11498899B2, “Nitrone herbicides” (FMC Corporation, priority 2016, dated 2022)

Key:
[1] = test system: barnyardgrass (Echinochloa crus-galli); assay: Test A preemergence, visual injury rating 0-100 (0 no effect, 100 complete control); type: in vivo
[2] = test system: foxtail, giant (giant foxtail, Setaria faberii); assay: Test A preemergence, visual injury rating 0-100; type: in vivo
kochia (Kochia scoparia) [3] = assay: Test A preemergence, visual injury rating 0-100; type: in vivo
[4] = test system: pigweed (Amaranthus retroflexus); assay: Test A preemergence, visual injury rating 0-100; type: in vivo
[5] = test system: ragweed (common ragweed, Ambrosia elatior); assay: Test A preemergence, visual injury rating 0-100; type: in vivo
[6] = test system: ryegrass, Italian (Italian ryegrass, Lolium multiflorum); assay: Test A preemergence, visual injury rating 0-100; type: in vivo
[7] = test system: barnyardgrass (Echinochloa crus-galli); assay: Test A postemergence, visual injury rating 0-100; type: in vivo; settings: 0 to 100 scale
[8] = test system: blackgrass (Alopecurus myosuroides); assay: Test A postemergence, visual injury rating 0-100; type: in vivo; settings: 0 to 100 scale
corn (Zea mays) = assay: Test A postemergence, visual injury rating 0-100; type: in vivo; settings: 0 to 100 scale
[9] = test system: foxtail, giant (giant foxtail, Setaria faberii); assay: Test A postemergence, visual injury rating 0-100; type: in vivo; settings: 0 to 100 scale
[10] = test system: galium (catchweed bedstraw, Galium aparine); assay: Test A postemergence, visual injury rating 0-100; type: in vivo; settings: 0 to 100 scale
kochia (Kochia scoparia) [11] = assay: Test A postemergence, visual injury rating 0-100; type: in vivo; settings: 0 to 100 scale
[12] = test system: pigweed (Amaranthus retroflexus); assay: Test A postemergence, visual injury rating 0-100; type: in vivo; settings: 0 to 100 scale
[13] = test system: ragweed (common ragweed, Ambrosia elatior); assay: Test A postemergence, visual injury rating 0-100; type: in vivo; settings: 0 to 100 scale
[14] = test system: ryegrass, Italian (Italian ryegrass, Lolium multiflorum); assay: Test A postemergence, visual injury rating 0-100; type: in vivo; settings: 0 to 100 scale
[15] = test system: wheat (Triticum aestivum); assay: Test A postemergence, visual injury rating 0-100; type: in vivo; settings: 0 to 100 scale
[16] = test system: ducksalad (Heteranthera limosa); assay: Test B flooded paddy test, visual rating 0-100; settings: Flood, 250 g ai/ha, applied to paddy water, rated after 13 to 15 days
[17] = test system: barnyardgrass (Echinochloa crus-galli); assay: Test B flooded paddy test, visual rating 0-100; settings: Flood, 250 g ai/ha, applied to paddy water, rated after 13 to 15 days
rice (Oryza sativa) = assay: Test B flooded paddy test, visual rating 0-100 (0 no effect, 100 complete control); settings: Flood, 250 g ai/ha, applied to paddy water, rated after 13 to 15 days
[18] = 125 g ai/ha, 0 to 100 scale (0 no effect, 100 complete control), approx. 10 days

CC(C)C1=[N+]([O-])C(C(=O)Nc2cccc(F)c2F)C(c2ccc(C(F)(F)F)cc2)C1 (racemic) [Compound 122]
Barnyardgrass plant response rating [1, 18]: 0 | Barnyardgrass plant response rating (0 to 100 scale) ([1]; 500 g ai/ha): 0 | Foxtail, Giant plant response rating [2, 18]: 0 | Foxtail, Giant plant response rating (0 to 100 scale) ([2]; 500 g ai/ha): 0 | Kochia plant response rating (kochia (Kochia scoparia) [3]; [18]): 0 | Kochia plant response rating (0 to 100 scale) (kochia (Kochia scoparia) [3]; 500 g ai/ha): 0 | Pigweed plant response rating [4, 18]: 0 | Pigweed plant response rating (0 to 100 scale) ([4]; 500 g ai/ha): 0 | Ragweed plant response rating [5, 18]: 0 | Ragweed plant response rating (0 to 100 scale) ([5]; 500 g ai/ha): 0 | Ryegrass, Italian plant response rating [6, 18]: 0 | Ryegrass, Italian plant response rating (0 to 100 scale) ([6]; 500 g ai/ha): 0 | Barnyardgrass plant response rating ([7]; 125 g ai/ha): 0 | Barnyardgrass plant response rating ([7]; 500 g ai/ha): 0 | Blackgrass plant response rating ([8]; 125 g ai/ha): 0 | Blackgrass plant response rating ([8]; 500 g ai/ha): 0 | Corn plant response rating (corn (Zea mays); 125 g ai/ha): 0 | Corn plant response rating (corn (Zea mays); 500 g ai/ha): 0 | Foxtail, Giant plant response rating ([9]; 125 g ai/ha): 0 | Foxtail, Giant plant response rating ([9]; 500 g ai/ha): 0 | Galium plant response rating ([10]; 125 g ai/ha): 0 | Galium plant response rating ([10]; 500 g ai/ha): 0 | Kochia plant response rating (kochia (Kochia scoparia) [11]; 125 g ai/ha): 0 | Kochia plant response rating (kochia (Kochia scoparia) [11]; 500 g ai/ha): 0 | Pigweed plant response rating ([12]; 125 g ai/ha): 0 | Pigweed plant response rating ([12]; 500 g ai/ha): 0 | Ragweed plant response rating ([13]; 125 g ai/ha): 0 | Ragweed plant response rating ([13]; 500 g ai/ha): 0 | Ryegrass, Italian plant response rating ([14]; 125 g ai/ha): 0 | Ryegrass, Italian plant response rating ([14]; 500 g ai/ha): 0 | Wheat plant response rating ([15]; 125 g ai/ha): 0 | Wheat plant response rating ([15]; 500 g ai/ha): 0 | Ducksalad plant response rating (0 to 100 scale) [16]: 0 | Barnyardgrass plant response rating (0 to 100 scale) [17]: 0 | Rice plant response rating (0 to 100 scale) (rice (Oryza sativa)): 0

CC1=[N+]([O-])[C@@H](C(=O)Nc2cccc(F)c2F)[C@H](c2ccc(C(F)(F)F)cc2)C1 (relative stereo) [Compound 2, trans-N-(2,3-difluorophenyl)-3,4-dihydro-5-methyl-3-[4-(trifluoromethyl)phenyl]-2H-pyrrole-2-carboxamide 1-oxide]
Barnyardgrass plant response rating (0 to 100 scale) ([1]; 125 g ai/ha): 90 | Barnyardgrass plant response rating ([1]; 500 g ai/ha, 0 to 100 scale): 100 | Foxtail, Giant plant response rating (0 to 100 scale) ([2]; 125 g ai/ha): 100 | Foxtail, Giant plant response rating ([2]; 500 g ai/ha, 0 to 100 scale): 100 | Kochia plant response rating (0 to 100 scale) (kochia (Kochia scoparia) [3]; 125 g ai/ha): 90 | Kochia plant response rating (kochia (Kochia scoparia) [3]; 500 g ai/ha, 0 to 100 scale): 80 | Pigweed plant response rating (0 to 100 scale) ([4]; 125 g ai/ha): 90 | Pigweed plant response rating ([4]; 500 g ai/ha, 0 to 100 scale): 90 | Ragweed plant response rating (0 to 100 scale) ([5]; 125 g ai/ha): 40 | Ragweed plant response rating ([5]; 500 g ai/ha, 0 to 100 scale): 90 | Ryegrass, Italian plant response rating (0 to 100 scale) ([6]; 125 g ai/ha): 30 | Ryegrass, Italian plant response rating ([6]; 500 g ai/ha, 0 to 100 scale): 50 | Barnyardgrass plant response rating ([7]; 125 g ai/ha): 70 | Barnyardgrass plant response rating ([7]; 500 g ai/ha): 90 | Blackgrass plant response rating ([8]; 125 g ai/ha): 20 | Blackgrass plant response rating ([8]; 500 g ai/ha): 90 | Corn plant response rating (corn (Zea mays); 125 g ai/ha): 40 | Corn plant response rating (corn (Zea mays); 500 g ai/ha): 80 | Foxtail, Giant plant response rating ([9]; 125 g ai/ha): 90 | Foxtail, Giant plant response rating ([9]; 500 g ai/ha): 90 | Galium plant response rating ([10]; 125 g ai/ha): 70 | Galium plant response rating ([10]; 500 g ai/ha): 70 | Kochia plant response rating (kochia (Kochia scoparia) [11]; 125 g ai/ha): 40 | Kochia plant response rating (kochia (Kochia scoparia) [11]; 500 g ai/ha): 80 | Pigweed plant response rating ([12]; 125 g ai/ha): 40 | Pigweed plant response rating ([12]; 500 g ai/ha): 80 | Ragweed plant response rating ([13]; 125 g ai/ha): 30 | Ragweed plant response rating ([13]; 500 g ai/ha): 60 | Ryegrass, Italian plant response rating ([14]; 125 g ai/ha): 60 | Ryegrass, Italian plant response rating ([14]; 500 g ai/ha): 70 | Wheat plant response rating ([15]; 125 g ai/ha): 40 | Wheat plant response rating ([15]; 500 g ai/ha): 70 | Ducksalad plant response rating (0 to 100 scale) [16]: 90 | Barnyardgrass plant response rating (0 to 100 scale) [17]: 70 | Rice plant response rating (0 to 100 scale) (rice (Oryza sativa)): 0

CC1=[N+]([O-])[C@@H](C(=O)Nc2cccc(F)c2F)[C@H](c2ccc(Cl)cc2)C1 (relative stereo) [Compound 5, trans-3-(4-chlorophenyl)-N-(2,3-difluorophenyl)-3,4-dihydro-5-methyl-2H-pyrrole-2-carboxamide 1-oxide]
Barnyardgrass plant response rating (0 to 100 scale) ([1]; 125 g ai/ha): 100 | Barnyardgrass plant response rating ([1]; 500 g ai/ha, 0 to 100 scale): 100 | Foxtail, Giant plant response rating (0 to 100 scale) ([2]; 125 g ai/ha): 100 | Foxtail, Giant plant response rating ([2]; 500 g ai/ha, 0 to 100 scale): 100 | Kochia plant response rating (0 to 100 scale) (kochia (Kochia scoparia) [3]; 125 g ai/ha): 10 | Kochia plant response rating (kochia (Kochia scoparia) [3]; 500 g ai/ha, 0 to 100 scale): 60 | Pigweed plant response rating (0 to 100 scale) ([4]; 125 g ai/ha): 50 | Pigweed plant response rating ([4]; 500 g ai/ha, 0 to 100 scale): 90 | Ragweed plant response rating (0 to 100 scale) ([5]; 125 g ai/ha): 50 | Ragweed plant response rating ([5]; 500 g ai/ha, 0 to 100 scale): 90 | Ryegrass, Italian plant response rating (0 to 100 scale) ([6]; 125 g ai/ha): 10 | Ryegrass, Italian plant response rating ([6]; 500 g ai/ha, 0 to 100 scale): 80 | Barnyardgrass plant response rating ([7]; 125 g ai/ha): 90 | Barnyardgrass plant response rating ([7]; 500 g ai/ha): 90 | Blackgrass plant response rating ([8]; 125 g ai/ha): 20 | Blackgrass plant response rating ([8]; 500 g ai/ha): 50 | Corn plant response rating (corn (Zea mays); 125 g ai/ha): 0 | Corn plant response rating (corn (Zea mays); 500 g ai/ha): 50 | Foxtail, Giant plant response rating ([9]; 125 g ai/ha): 60 | Foxtail, Giant plant response rating ([9]; 500 g ai/ha): 70 | Galium plant response rating ([10]; 125 g ai/ha): 50 | Galium plant response rating ([10]; 500 g ai/ha): 80 | Kochia plant response rating (kochia (Kochia scoparia) [11]; 125 g ai/ha): 60 | Kochia plant response rating (kochia (Kochia scoparia) [11]; 500 g ai/ha): 70 | Pigweed plant response rating ([12]; 125 g ai/ha): 40 | Pigweed plant response rating ([12]; 500 g ai/ha): 70 | Ragweed plant response rating ([13]; 125 g ai/ha): 30 | Ragweed plant response rating ([13]; 500 g ai/ha): 70 | Ryegrass, Italian plant response rating ([14]; 125 g ai/ha): 0 | Ryegrass, Italian plant response rating ([14]; 500 g ai/ha): 30 | Wheat plant response rating ([15]; 125 g ai/ha): 20 | Wheat plant response rating ([15]; 500 g ai/ha): 80 | Ducksalad plant response rating (0 to 100 scale) [16]: 100 | Barnyardgrass plant response rating (0 to 100 scale) [17]: 65 | Rice plant response rating (0 to 100 scale) (rice (Oryza sativa)): 0

CC1=[N+]([O-])[C@H](C(=O)Nc2cccc(F)c2F)[C@@H](c2ccc(C)cc2)C1 (relative stereo) [Compound 6, rel-(2S,3R)—N-(2,3-Difluorophenyl)-3,4-dihydro-5-methyl-3-(4-methylphenyl)-2H-pyrrole-2-carboxamide 1-oxide]
Barnyardgrass plant response rating (0 to 100 scale) ([1]; 125 g ai/ha): 100 | Barnyardgrass plant response rating ([1]; 500 g ai/ha, 0 to 100 scale): 100 | Foxtail, Giant plant response rating (0 to 100 scale) ([2]; 125 g ai/ha): 100 | Foxtail, Giant plant response rating ([2]; 500 g ai/ha, 0 to 100 scale): 100 | Kochia plant response rating (0 to 100 scale) (kochia (Kochia scoparia) [3]; 125 g ai/ha): 70 | Kochia plant response rating (kochia (Kochia scoparia) [3]; 500 g ai/ha, 0 to 100 scale): 70 | Pigweed plant response rating (0 to 100 scale) ([4]; 125 g ai/ha): 80 | Pigweed plant response rating ([4]; 500 g ai/ha, 0 to 100 scale): 90 | Ragweed plant response rating (0 to 100 scale) ([5]; 125 g ai/ha): 40 | Ragweed plant response rating ([5]; 500 g ai/ha, 0 to 100 scale): 100 | Ryegrass, Italian plant response rating (0 to 100 scale) ([6]; 125 g ai/ha): 80 | Ryegrass, Italian plant response rating ([6]; 500 g ai/ha, 0 to 100 scale): 90 | Barnyardgrass plant response rating ([7]; 125 g ai/ha): 90 | Barnyardgrass plant response rating ([7]; 500 g ai/ha): 90 | Blackgrass plant response rating ([8]; 125 g ai/ha): 50 | Blackgrass plant response rating ([8]; 500 g ai/ha): 80 | Corn plant response rating (corn (Zea mays); 125 g ai/ha): 30 | Corn plant response rating (corn (Zea mays); 500 g ai/ha): 80 | Foxtail, Giant plant response rating ([9]; 125 g ai/ha): 90 | Foxtail, Giant plant response rating ([9]; 500 g ai/ha): 90 | Galium plant response rating ([10]; 125 g ai/ha): 50 | Galium plant response rating ([10]; 500 g ai/ha): 70 | Kochia plant response rating (kochia (Kochia scoparia) [11]; 125 g ai/ha): 30 | Kochia plant response rating (kochia (Kochia scoparia) [11]; 500 g ai/ha): 70 | Pigweed plant response rating ([12]; 125 g ai/ha): 40 | Pigweed plant response rating ([12]; 500 g ai/ha): 50 | Ragweed plant response rating ([13]; 125 g ai/ha): 0 | Ragweed plant response rating ([13]; 500 g ai/ha): 60 | Ryegrass, Italian plant response rating ([14]; 125 g ai/ha): 50 | Ryegrass, Italian plant response rating ([14]; 500 g ai/ha): 60 | Wheat plant response rating ([15]; 125 g ai/ha): 60 | Wheat plant response rating ([15]; 500 g ai/ha): 80 | Ducksalad plant response rating (0 to 100 scale) [16]: 100 | Barnyardgrass plant response rating (0 to 100 scale) [17]: 85 | Rice plant response rating (0 to 100 scale) (rice (Oryza sativa)): 0
